A word on the IC50: it is the concentration that gives 50% inhibition.

In the assay the target is Full-length PRMT5 enzyme co-expressed with MEP50 (Homo sapiens (Human), UniProt O14744). The assay is described as follows: PRMT5 Biochemical Assay. The following applies: 200 nM histone H4 derived peptide substrate, 1 μM S-Adenosyl methionine, 4 hours at 37° C, Transcreener EPIGEN fluorescence polarisation. The procedure: Compounds of the invention may be tested for in vitro activity in the following assay: A histone H4 derived peptide is used as substrate (amino acid sequence: […]NH2). Full-length PRMT5 enzyme (NCBI Reference sequence NP-006100.2) was co-expressed with Hiss-MEP50 in insect cells and purified via Nickel immobilized metal affinity and gel filtration chromatography (“the enzyme”).
The 6 μL assay reactions are run in Greiner brand black 384-well low volume plates. All reactions contained assay buffer (phosphate buffered saline, 0.01% (v/v) Tween-20, 0.01% (w/v) albumin from chicken egg white, 1 mM dithiothreitol, 200 nM peptide substrate, 1 μM S-Adenosyl methionine, and 15 ng/reaction enzyme, with the enzyme being omitted from negative control reactions. Compounds were added in a volume of 100 nL from dilution series prepared in DMSO, positive and negative control reactions receiving the same volume DMSO without compound. The plates were sealed with adhesive seals and incubated for 4 hours at 37° C. Reaction progress was measured using the Transcreener™ EPIGEN methyltransferase assay (BellBrook Labs, Madison, Wis.) as recommended by the manufacturer. To each reaction 2 μL detection mix were added, containing coupling enzymes, fluorescence polarisation tracer, and AMP antibody. Plates were incubated for 90 min before being read on a PerkinElmer EnVision™ plate reader in fluorescence polarisation mode.

Chain of Full-length PRMT5 enzyme co-expressed with MEP50 (O14744 whole entry): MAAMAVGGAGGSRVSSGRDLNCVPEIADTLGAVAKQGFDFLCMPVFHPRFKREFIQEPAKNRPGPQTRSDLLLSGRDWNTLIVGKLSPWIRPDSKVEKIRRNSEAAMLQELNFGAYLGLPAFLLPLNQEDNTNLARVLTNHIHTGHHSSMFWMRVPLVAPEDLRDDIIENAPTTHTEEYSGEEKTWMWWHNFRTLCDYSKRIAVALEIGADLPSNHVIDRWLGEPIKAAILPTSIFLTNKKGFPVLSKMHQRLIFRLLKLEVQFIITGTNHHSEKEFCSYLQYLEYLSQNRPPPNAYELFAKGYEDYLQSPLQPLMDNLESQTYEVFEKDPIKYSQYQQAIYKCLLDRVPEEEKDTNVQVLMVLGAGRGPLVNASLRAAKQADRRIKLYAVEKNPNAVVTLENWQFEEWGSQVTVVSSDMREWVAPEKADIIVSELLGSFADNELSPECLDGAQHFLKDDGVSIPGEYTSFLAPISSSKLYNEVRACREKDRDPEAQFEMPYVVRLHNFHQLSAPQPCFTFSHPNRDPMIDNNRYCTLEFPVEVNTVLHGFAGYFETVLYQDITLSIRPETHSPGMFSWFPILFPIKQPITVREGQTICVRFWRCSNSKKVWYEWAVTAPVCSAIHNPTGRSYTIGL
Chain of Full-length PRMT5 enzyme co-expressed with MEP50 (Q9BQA1 whole entry partner): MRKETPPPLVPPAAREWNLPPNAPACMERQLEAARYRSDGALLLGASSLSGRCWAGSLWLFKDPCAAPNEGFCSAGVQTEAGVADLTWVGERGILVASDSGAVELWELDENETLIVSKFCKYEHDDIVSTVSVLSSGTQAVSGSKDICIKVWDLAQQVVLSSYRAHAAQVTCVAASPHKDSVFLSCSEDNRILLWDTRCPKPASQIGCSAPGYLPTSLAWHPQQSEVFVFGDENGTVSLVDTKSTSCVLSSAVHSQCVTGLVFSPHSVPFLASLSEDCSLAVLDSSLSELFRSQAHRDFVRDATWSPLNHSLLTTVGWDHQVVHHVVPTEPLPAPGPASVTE

Take `Cc1nn(C)cc1-c1cc(C(=O)NC[C@H](O)CNC2Cc3ccccc3C2)no1` [Compound 5, (R)-N-(3-((2,3-Dihydro-1H-inden-2-yl)amino)-2-hydroxypropyl)-5-(1,3-dimethyl-1H-pyrazol-4-yl)isoxazole-3-carboxamide]: the 50% inhibitory concentration (IC50) turned out to be 9.78 µM.
In the case of `COc1ccc(-c2cc(C(=O)NC[C@H](O)CNC3Cc4ccccc4C3)no2)cc1` [Compound 6, (R)-N-(3-((2,3-Dihydro-1H-inden-2-yl)amino)-2-hydroxypropyl)-5-(4-methoxyphenyl)isoxazole-3-carboxamide] it was 1.55 µM.
With `O=C(NC[C@H](O)CNC1Cc2ccccc2C1)c1cnn(-c2ccc(F)cc2)c1` [Compound 9, (R)-N-(3-((2,3-Dihydro-1H-inden-2-yl)amino)-2-hydroxypropyl)-1-(4-fluorophenyl)-1H-pyrazole-4-carboxamide], half-maximal inhibition (IC50) required 3.72 µM.
In the case of `O=C(NC[C@H](O)CNC1Cc2ccccc2C1)c1cnn(-c2cccc(Cl)c2)c1` [Compound 10, (R)-1-(3-Chlorophenyl)-N-(3-((2,3-dihydro-1H-inden-2-yl)amino)-2-hydroxypropyl)-1H-pyrazole-4-carboxamide] it was 1.44 µM; in that of `O=C(NC[C@H](O)CNC1Cc2ccccc2C1)c1ccc(N2CCOCC2)nc1` [Compound 11, (R)-N-(3-((2,3-Dihydro-1H-inden-2-yl)amino)-2-hydroxypropyl)-6-morpholinonicotinamide], 0.83 µM; in that of `Cc1nnc(-c2ccc(C(=O)NC[C@H](O)CNC3Cc4ccccc4C3)cc2)o1` [Compound 12, (R)-N-(3-((2,3-Dihydro-1H-inden-2-yl)amino)-2-hydroxypropyl)-4-(5-methyl-1,3,4-oxadiazol-2-yl)benzamide], 0.695 µM.
For `Cc1nnc(-c2ccc(C(=O)NC[C@@H](O)CNC3Cc4ccccc4C3)cc2)o1` [Compound 17, (S)-N-(3-((2,3-Dihydro-1H-inden-2-yl)amino)-2-hydroxypropyl)-4-(5-methyl-1,3,4-oxadiazol-2-yl)benzamide] the value was 0.629 µM.
`O=C(NCC(O)CNC1Cc2ccccc2C1)c1ccc(C(=O)N2CCC2)cc1` (stereo not drawn) [Compound 20, 4-(Azetidine-1-carbonyl)-N-(3-((2,3-dihydro-1H-inden-2-yl)amino)-2-hydroxypropyl)benzamide] showed an IC50 of 0.977 µM.
For `O=C(NCC(O)CNC1Cc2ccccc2C1)c1ccc(C(=O)N2CCCC2)cc1` (stereo not drawn) [Compound 21, N-(3-((2,3-Dihydro-1H-inden-2-yl)amino)-2-hydroxypropyl)-4-(pyrrolidine-1-carbonyl)benzamide] the value was 1.11 µM.
In the case of `O=C(NCC(O)CNC1Cc2ccccc2C1)c1cccc(-c2ccccc2)c1` (stereo not drawn) [Compound 25, N-(3-((2,3-Dihydro-1H-inden-2-yl)amino)-2-hydroxypropyl)[1,1′-biphenyl]-3-carboxamide] it was 2.22 µM.
In the case of `O=C(NCC(O)CNC1Cc2ccccc2C1)c1ccccc1-c1ccccc1` (stereo not drawn) [Compound 26, N-(3-((2,3-Dihydro-1H-inden-2-yl)amino)-2-hydroxypropyl)-[1,1′-biphenyl]-2-carboxamide], the 50% inhibitory concentration (IC50) was 3.87 µM.
The compound `O=C(NCC(O)CNC1Cc2ccccc2C1)c1ccc(C(=O)N2CCOCC2)cc1F` (stereo not drawn) [Compound 27, N-(3-((2,3-Dihydro-1H-inden-2-yl)amino)-2-hydroxypropyl)-2-fluoro-4-(morpholine-4-carbonyl)benzamide] registered a concentration for half-maximal inhibition (IC50) of 0.434 µM.
The compound `O=C(NCC(O)CNC1Cc2ccc(Br)cc2C1)c1ccc(Cl)cc1` (stereo not drawn) [Compound 28, N-(3-((5-Bromo-2,3-dihydro-1H-inden-2-yl)amino)-2-hydroxypropyl)-4-chlorobenzamide] gave an IC50 of 69.4 µM.
In the case of `O=C(NCCC(O)CNC1Cc2ccccc2C1)c1ccc(Cl)cc1` (stereo not drawn) [Compound 29, 4-Chloro-N-(4-((2,3-dihydro-1H-inden-2-yl)amino)-3-hydroxybutyl)benzamide] it was 4.43 µM; in that of `O=C(NCC(O)CNC1CCc2ccc(F)cc2C1)c1ccc(Cl)cc1` (stereo not drawn) [Compound 31, 4-Chloro-N-(3-((7-fluoro-1,2,3,4-tetrahydronaphthalen-2-yl)amino)-2-hydroxypropyl)benzamide], 22.6 µM.
